Molecules are shown by their SMILES.

This is an account of results in patent publication US20240100023A1, “Compositions and Methods For Treating Spinal Cord Injuries” (priority 2020, published 2024).

The experiment relates to Rat (Lister). The experiment can be described thus: 5 Choice serial reaction time task. It counts as in vivo. Conditions: IP. The source says: Another useful animal model for evaluating ampakine activity is the Five Choice Serial Reaction Time Task in Rats. This assay requires rats to provide a single nose poke in response to a light stimulus presented in one of five locations within a 9-hole chamber. With a correct response a reward is delivered that the rat collects from the food magazine at the rear of the chamber. The withdrawal of its head from the food magazine initiates a short inter-trial interval followed by the presentation of the next randomly presented stimulus. An incorrect response results in a time out period (non-reinforcement) followed by the initiation of a new trial. Groups of 12 rats were used in this study, and all rats received all treatments using a randomized sequence. For evaluation using this model, CX1739 was selected as the exemplary low impact ampakine, administered at doses of 3 and 10 mg/kg i.p. 20 min prior to the start of the study.

Regarding `CN(C(=O)c1ccc2nonc2c1)C1CCOCC1` [CX1739, N-Methyl-N-tetrahydro-2H-pyran-4-yl-[2,1,3]-benzoxadiazole-5-carboxamide], the “Minimum Effective Dose, 5 choice serial reaction time task” value is listed as 3 mg/kg.
